According to PubChem BioAssay (NCI):
“And” between values parts separate entries of the source, which are not always exact repeats. Equal values may be shown once.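 Test compounds were applied to cells in 96-well plates for 48 hours at 5 doses. GI50 marks 50% less growth. Definition used: TGI = concentration required for complete inhibition of growth.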

Tests used:
Experiment in all cases: NCI tumour cell line growth inhibition, 48 h
MALME-3M melanoma = system: MALME-3M melanoma
CAKI-1 renal = system: CAKI-1 renal
NCI-H226 lung = system: NCI-H226 lung
HOP-62 NSCLC = system: HOP-62 NSCLC
SF-295 CNS = system: SF-295 CNS
SK-MEL-28 melanoma = system: SK-MEL-28 melanoma
UACC-62 melanoma = system: UACC-62 melanoma
UACC-257 melanoma = system: UACC-257 melanoma

Row | SMILES | GI50 (MALME-3M melanoma) | TGI (MALME-3M melanoma) | GI50 (CAKI-1 renal) | TGI (CAKI-1 renal) | GI50 (NCI-H226 lung) | TGI (NCI-H226 lung) | GI50 (HOP-62 NSCLC) | TGI (HOP-62 NSCLC) | GI50 (SF-295 CNS) | TGI (SF-295 CNS) | GI50 (SK-MEL-28 melanoma) | TGI (SK-MEL-28 melanoma) | GI50 (UACC-62 melanoma) | TGI (UACC-62 melanoma) | GI50 (UACC-257 melanoma) | TGI (UACC-257 melanoma)
1 | NC(N)=N/N=C/c1cccc(Cl)c1Cl | 4.62 µM | 18.1 µM | 6.62 µM | 21.8 µM | 13.6 µM | 29.2 µM | 11.7 µM | 24.1 µM | 2.83 µM | 10.3 µM | 4.24 µM | 14.7 µM | 1.85 µM | 4.96 µM | 6.26 µM | 20.6 µM
2 | CC(C)c1cc(CNc2nc(Nc3cc(C4CC4)[nH]n3)cc(N3CCN(C)CC3)n2)on1 | 1.61 µM and 0.276 µM | > 10 µM and 2.96 µM | 1.88 µM and 1.12 µM | > 10 µM and 4.09 µM | 0.363 µM and 0.0576 µM | 4.18 µM and 3.6 µM | – | – | – | > 10 µM and 2.77 µM | – | > 10 µM and 4.59 µM | – | > 10 µM and 2.35 µM | – | > 10 µM and 5.53 µM
3 | CC1CCC2C(C)C3C(CC4C5CC=C6CC(OC7OC(CO)C(O)C(OC8OC(CO)C(O)C(O)C8O)C7OC7OC(C)C(O)C(O)C7O)CCC6(C)C5CCC43C)N2C1 (configuration not stated) | > 2.5 µg/mL | 65.3 µM and > 2.5 µg/mL | > 2.5 µg/mL | 25.1 µM and > 2.5 µg/mL | > 2.5 µg/mL | 44.3 µM and > 2.5 µg/mL | > 2.5 µg/mL | 32.2 µM and > 2.5 µg/mL | > 2.5 µg/mL | 22.7 µM and > 2.5 µg/mL | > 2.5 µg/mL | 21.8 µM and > 2.5 µg/mL | > 2.5 µg/mL | 27.7 µM and > 2.5 µg/mL | > 2.5 µg/mL | 33.2 µM and > 2.5 µg/mL
4 | COc1cc(C2CC(c3ccc4c(c3)OCO4)=NN2C(C)=O)cc(OC)c1OC (configuration not stated) | 1.88 µM | > 100 µM | 0.715 µM | > 100 µM | 13.5 µM | > 100 µM | 1.14 µM | > 100 µM | 0.368 µM | 4.51 µM | 4.97 µM | > 100 µM | 0.493 µM | > 100 µM | > 35.2 µM | > 100 µM
5 | COc1ccc(OC)c(-c2cc(-c3ccccc3)nn2-c2ccc(S(N)(=O)=O)cc2)c1 | – | – | 14.8 µM | 32.8 µM | 15 µM | 33.6 µM | – | – | 13.6 µM | 29.2 µM | – | – | 12.1 µM | 24.7 µM | 15.2 µM | 31.6 µM
6 | CCCCSCc1nc2nc(Cl)c(Cl)nc2[nH]1 | – | 53.6 µM | – | 79.3 µM | – | 62.7 µM | – | 42 µM | – | 45.6 µM | – | 71.9 µM | – | 29.5 µM | – | 44.5 µM
7 | C=C1C(=O)O[C@H]2[C@H]1[C@H](OC(=O)/C(C)=C\C)C[C@]1(CO1)[C@@H]1[C@H](OC(C)=O)C=C(C)[C@]21O | – | 35.3 µM | – | 36.8 µM | – | > 61.2 µM | – | > 100 µM | – | > 100 µM | – | 30.6 µM | – | 32.2 µM | – | 39.2 µM
8 | CC1CCCN(CC(O)CN2CCCc3ccccc32)C1 (configuration not stated) | – | > 100 µM | – | > 100 µM | – | > 100 µM | – | > 100 µM | – | > 100 µM | – | > 100 µM | – | > 100 µM | – | > 100 µM
9 | CCOC(=O)c1cc2cc(NC(=O)c3cc4cc([N+](=O)[O-])ccc4n3C)ccc2n1C | – | – | 30.9 µM | > 100 µM | 12 µM | 46.6 µM | 19.7 µM | 35.3 µM | 30.1 µM | > 100 µM | 63.6 µM | > 100 µM | 12.3 µM | 27.1 µM | 46.6 µM | > 100 µM
10 | CC12CCc3ccccc3C1=Nc1ccccc12 (configuration not stated) | – | > 100 µM | – | 51.6 µM | – | 89.8 µM | – | > 100 µM | – | > 100 µM | – | > 100 µM | – | > 100 µM | – | > 100 µM
11 | CCn1c(-c2nonc2N)nc2c(C#CC(C)(C)O)nc(O[C@@H](CN)c3ccccc3)cc21 | 0.447 µM | 1.47 µM | 3.7 µM | 12.3 µM | 0.624 µM | 1.57 µM | 0.294 µM | 1.98 µM | 0.0333 µM | 1 µM | 0.399 µM | 1.19 µM | 0.361 µM | 1.02 µM | 0.611 µM | 1.54 µM
12 | CCN(Cc1nc2cc(C(F)(F)F)ccc2nc1-c1ccccc1)c1ccc(OC)c(OC)c1 | – | – | 17.4 µM | 64.2 µM | 13.2 µM | 29 µM | 15.1 µM | 29.1 µM | 15.7 µM | 31.8 µM | 25.2 µM | 76 µM | 14.1 µM | 27.7 µM | 0.0249 µM | 0.793 µM
13 | O=C(O)c1ccc(S(=O)(=O)N=Nc2c(O)[nH]c3ccccc23)cc1 | – | > 100 µM | – | > 100 µM | – | > 100 µM | – | > 100 µM | – | > 100 µM | – | > 100 µM | – | > 100 µM | – | > 100 µM
14 | COc1cc(OC)c(OC)cc1/C=C1\C=Cc2ccccc21 | – | 56.8 µM | – | – | – | > 100 µM | – | 37.5 µM | – | 57.6 µM | – | 47.6 µM | – | – | – | 37.7 µM
15 | COc1cc(-c2nn(C(=O)NS(=O)(=O)c3ccc(C)cc3)cc2-c2ccncc2)ccc1Cl | 4.14 µM | 15.6 µM | 3.15 µM | 26.9 µM | 2.88 µM | 14.8 µM | 2.9 µM | 10.8 µM | – | – | 3.51 µM | 13.1 µM | 2.28 µM | 10.2 µM | 12.1 µM | 60.2 µM
16 | CCOC(=O)c1c(C)n(CC(C)C)c2c1cc1oc(=O)c(=O)n3cnc2c13 | – | – | 11.4 µM | 29.2 µM | 9.63 µM | 29.2 µM | 35 µM | > 50 µM | 12.8 µM | 33 µM | 23.6 µM | > 50 µM | 9.44 µM | 21.6 µM | 11.3 µM | 30.5 µM
17 | CCN(CC)CCCCCOc1cc(O)c2c(=O)cc(-c3ccccc3)oc2c1 | 1.86 µM | 4.2 µM | – | – | 10.5 µM | 25.8 µM | 2.43 µM | 9.71 µM | 2.87 µM | 5.69 µM | 1.62 µM | 3.07 µM | 1.74 µM | 3.15 µM | 1.81 µM | 3.55 µM
18 | COc1ccccc1CNC(=O)C1c2ccccc2C(=O)N(CC(C)C)C1c1cccs1 (configuration not stated) | 20.7 µM | 60.3 µM | 18.1 µM | 78.8 µM | 20.4 µM | 72.4 µM | 40.7 µM | > 100 µM | 15.6 µM | 67.8 µM | 30.7 µM | > 100 µM | 14.7 µM | 38.6 µM | – | –
19 | c1ccc2cc(OCC3CO3)c(OCC3CO3)cc2c1 (configuration not stated) | – | 36.5 µM | – | 37.6 µM | – | – | – | 13.6 µM | – | 8.59 µM | – | 26.1 µM | – | 17.6 µM | – | 24.1 µM
20 | O=C(Nc1cccc(C(F)(F)F)c1)c1cccc(NC2=C(Cl)C(=O)N(Cc3ccccc3)C2=O)c1 | – | – | 6.5 µM | > 100 µM | 4.51 µM | 65.5 µM | 40.1 µM | > 100 µM | 20.2 µM | > 100 µM | 45.1 µM | > 100 µM | 12.1 µM | 29.9 µM | 12.4 µM | 38.5 µM
21 | O=C1/C(=C/c2ccc([N+](=O)[O-])s2)Oc2ccccc21 | 1.39 µM | 3.92 µM | 2.2 µM | 5.22 µM | 2.24 µM | 5.75 µM | – | – | 2.07 µM | 4.63 µM | 1.25 µM | 2.65 µM | 0.667 µM | 1.94 µM | 1.26 µM | 2.78 µM
22 | COc1ccc(NC(=O)Nc2ccc(Nc3nc(C)cc(Nc4ccc(C)cc4)n3)cc2)cc1 | 1.83 µM | 3.58 µM | – | – | – | – | 1.58 µM | 3.05 µM | 1.71 µM | 3.18 µM | 1.51 µM | 3.14 µM | 1.41 µM | 3.04 µM | 1.89 µM | 3.69 µM
23 | COc1cc2nc(-c3ccc(-n4cncc4-c4ccc(N)cc4)cc3)sc2c(OC)c1OC | 0.71 µM | 6.44 µM | 1.41 µM | 5.85 µM | 4.73 µM | 40.6 µM | – | – | 1.53 µM | 7.14 µM | > 100 µM | > 100 µM | 5.45 µM | > 100 µM | 6.4 µM | > 100 µM
24 | CCCC(=O)NC(c1ccc2c(c1)OCO2)c1ccc2cccnc2c1O (configuration not stated) | 2.17 µM | > 100 µM | 0.669 µM | > 100 µM | 2.21 µM | 8.63 µM | 1.2 µM | > 100 µM | 0.728 µM | 42.6 µM | 3.03 µM | > 100 µM | 1.3 µM | 7.3 µM | – | –
25 | COc1cc(-c2nc(SCC(=O)Nc3ccc(C(C)=O)cc3)[nH]c(=O)c2C#N)cc(OC)c1OC | 48.1 µM | > 100 µM | – | – | 89.8 µM | > 100 µM | 79.3 µM | > 100 µM | 43 µM | > 100 µM | 47.5 µM | > 100 µM | 28 µM | > 100 µM | 97.4 µM | > 100 µM
26 | COC(=O)[C@@H](Cc1c[nH]c2ccccc12)NC(=O)/C=C/c1ccccc1 | > 100 µM | > 100 µM | 3.42 µM | > 100 µM | 6.06 µM | > 100 µM | 3.62 µM | > 100 µM | – | – | 4.43 µM | > 100 µM | 3.97 µM | > 100 µM | 9.03 µM | > 100 µM
